This is an account of results in patent publication US20250361241A1, “HPK1 INHIBITOR AND MEDICAL USE THEREOF” (Betta Pharmaceuticals Co., Ltd., priority 2022, published 2025).

Series [1] deals with human peripheral blood mononuclear cells. Nature of the series: Detection of IFN-γ secretion in human peripheral blood mononuclear cells (anti-CD3/CD28 beads, ELISA). The series is classed as cell-based. As to the method: Pharmacological Experiment 4: Detection of IFN-γ Secretion in Human Peripheral Blood Monocytes
• (1) Take human peripheral blood mononuclear cells frozen in liquid nitrogen, thaw in a 37° C. water bath, add 5 mL of preheated RPMI-1640 complete medium (containing 10% fetal bovine serum and penicillin/streptomycin), centrifuge at 500 g for 10 minutes, and discard the supernatant; • (2) Resuspend the cells in RPMI-1640 complete medium, adjust the density to 5×10^6 cells/mL, inoculate in a low-adhesion 6-well plate (Corning, 3471), and culture at 37° C. for 2 days; • (3) Collect cultured human peripheral blood mononuclear cells, centrifuge at 500 g for 10 min, and discard the supernatant; • (4) Resuspend the cells in RPMI-1640 complete medium, adjust the density to 1×10^6 cells/mL, and inoculate them in a round-bottom 96-well plate (Jet Biofil, TCP-002-096), with 100 μL per well; • (5) Add 50 μL of the test compound to each well and incubate at 37° C. for 30 min; • (6) Take human anti-CD3/CD28 magnetic beads (Miltenyi, 130-091-441), wash once with RPMI-1640 complete medium, and adjust the density to 0.5×106 beads/mL for later use; • (7) After the compound incubation, 50 μL of anti-human CD3/CD28 magnetic beads were added to each well and cultured at 37° C. for 3 days, • (8) The cell culture supernatant was obtained and the IFN-γ secretion was detected using the Human IFN-gamma DuoSet ELISA kit (R&D, DY285B-05); • (9) The log value of concentration was used as the X-axis and the IFN-γ secretion amount was used as the Y-axis. The “log (agonist) vs. response−variable slope” equation of the analysis software GraphPad Prism 7 was used to fit the dose-effect curve, thereby obtaining the EC3x value and the maximum induction factor of the compound for the secretion of IFN-γ from human peripheral blood mononuclear cells to reach 3 times the baseline.
On the technique in general: An ELISA detects its analyte on a solid surface through an enzyme-linked reagent.

The nature of series [2]: PK study of compound in monkeys. The class given is in vivo. The settings on record: crab-eating monkey. How it is done:
Pharmacological Experiment 7: PK Study of Compound in Monkeys
The drug concentration was analyzed by LC-MS/MS method, and the pharmacokinetic parameters were calculated using Phoenix WinNolin software (Pharsight, USA).

A short description of series [3]: PK study of compound in dogs. The series is classed as in vivo. To be noted: Beagle dog, PO 5 mg/kg, DMSO/Solutol/saline. As to the method:
Pharmacological Experiment 6: PK Study of Compound in Dogs The compound was mixed with a solvent of saline or 10% DMSO/5% Solutol/85% saline or 10% DMSO/10% Solutol/80% saline (specific solvents are shown in the table below), vortexed and sonicated to prepare a clear oral solution. […] The drug concentration was analyzed by LC-MS/MS method, and the pharmacokinetic parameters were calculated using Phoenix WinNolin software (Pharsight, USA).

Series [4] concerns Jurkat cells. Nature of the series: Jurkat IL-2 secretion detection (anti-CD3/CD28 beads, ELISA). The series is classed as cell-based, human. As to the method:
Pharmacological Experiment 5: Jurkat IL-2 Secretion Detection
• (1) Take the cultured Jurkat cells, adjust the density to 1×10^6 cells/mL, and inoculate them in a flat-bottom […] plate (Jet Biofil, TCP011096), with 100 μL per well, • (2) Add 50 μL of the test compound to each well and incubate at 37° C. for 30 min; • (3) Take human anti-CD3/CD28 magnetic beads (Miltenyi, 130-091-441), wash once with RPMI-1640 complete medium, and adjust the density to 4×106 beads/mL for later use; • (4) After the compound incubation, 50 μL of anti-human CD3/CD28 magnetic beads were added to each well and cultured at 37° C. for 20 h, • (5) The cell culture supernatant was obtained and the IL-2 secretion was detected using the Human IL-2 DuoSet ELISA kit (R&D, DY008); • (6) The log value of the concentration was used as the X-axis and the IL-2 secretion was used as the Y-axis. The “log (agonist) vs. response-variable slope” equation of the analysis software GraphPad Prism 7 was used to fit the dose-effect curve, thereby obtaining the […] and the […]

Series [5] concerns mouse colon cancer cell CT26. The series is described as follows: Efficacy in CT26 CDX model mice (subcutaneous homologous transplant tumor). The class given is in vivo, Balb/c mouse. The settings on record: after 21 days. As to the method:
Pharmacological Experiment 8; Study on the Efficacy of the Compound in CT26CDX Model Mice […] The first group (G1) was a vehicle control group (10% propylene glycol/5% HS15/85% glucose). The second group (G2) was the control compound D1-administered group. […] Note: PO stands for oral gavage, QD stands for once daily dosing, and BID stands for twice daily dosing. Tumor size and mouse body weight were measured twice a week during the experiment, and the weight of the animals on that day was used as a reference for each drug administration. The tumor size was measured by using a vernier caliper to measure the length (a) and width (b) of the tumor. The tumor volume (TV) was calculated using the following formula: TV=a*b2/2 After 21 days of administration, the tumor growth inhibition rate (TGI) of each administration group is shown in Table 10.

In series [6] the target is HPK1 (Homo sapiens (Human), UniProt Q92918). The series is described as follows: HPK1 enzyme activity detection (1 mM ATP system), ADP-Glo with MBP substrate, Pharmacological Experiment 2. The series is classed as biochemical. A digest of the protocol: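 Compound in DMSO preincubated with HPK1 for 15 min at 25 °C, then reaction started with ATP (1 mM system) and MBP substrate for 60 min at 25 °C. ADP formed quantified by ADP-Glo luminescence; IC50 derived from percentage inhibition.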
Background: In ADP-Glo the light output rises with the ADP produced.

Series [7] has as its target GLK (Homo sapiens (Human), UniProt Q8IVH8). The series is described as follows: GLK kinase assay (1 mM ATP system), ADP-Glo. The series is classed as biochemical. In a few lines: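 GLK kinase reaction with 1 mM ATP and MBP substrate ran 60 min at 25 °C after 15 min preincubation of enzyme with compound. ADP formed was detected by ADP-Glo luminescence; percent inhibition used to derive IC50.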

Sequence of HPK1 (Q92918 whole entry, species assumed): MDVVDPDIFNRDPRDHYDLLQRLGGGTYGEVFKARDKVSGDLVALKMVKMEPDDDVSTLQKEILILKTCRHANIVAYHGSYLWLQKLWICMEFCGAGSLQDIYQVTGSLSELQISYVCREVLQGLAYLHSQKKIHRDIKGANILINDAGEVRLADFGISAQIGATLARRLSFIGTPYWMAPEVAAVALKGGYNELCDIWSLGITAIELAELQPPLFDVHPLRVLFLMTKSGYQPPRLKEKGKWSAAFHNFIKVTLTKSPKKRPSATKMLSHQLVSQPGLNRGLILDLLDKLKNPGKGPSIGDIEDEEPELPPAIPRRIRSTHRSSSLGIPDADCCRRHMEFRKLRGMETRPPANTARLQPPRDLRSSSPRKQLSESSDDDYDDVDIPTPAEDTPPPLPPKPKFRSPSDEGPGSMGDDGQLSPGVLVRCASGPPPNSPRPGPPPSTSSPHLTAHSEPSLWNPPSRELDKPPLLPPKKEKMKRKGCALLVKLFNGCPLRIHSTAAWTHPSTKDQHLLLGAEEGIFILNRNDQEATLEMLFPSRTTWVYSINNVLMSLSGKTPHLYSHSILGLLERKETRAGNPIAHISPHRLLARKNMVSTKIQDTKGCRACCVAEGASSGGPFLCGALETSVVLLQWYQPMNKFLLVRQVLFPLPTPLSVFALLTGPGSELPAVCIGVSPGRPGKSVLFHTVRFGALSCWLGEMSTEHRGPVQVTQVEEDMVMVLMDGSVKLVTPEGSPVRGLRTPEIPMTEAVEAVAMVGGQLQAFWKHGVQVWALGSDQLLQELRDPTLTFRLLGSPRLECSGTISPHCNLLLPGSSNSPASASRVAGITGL
Sequence of GLK (Q8IVH8 whole entry, species assumed): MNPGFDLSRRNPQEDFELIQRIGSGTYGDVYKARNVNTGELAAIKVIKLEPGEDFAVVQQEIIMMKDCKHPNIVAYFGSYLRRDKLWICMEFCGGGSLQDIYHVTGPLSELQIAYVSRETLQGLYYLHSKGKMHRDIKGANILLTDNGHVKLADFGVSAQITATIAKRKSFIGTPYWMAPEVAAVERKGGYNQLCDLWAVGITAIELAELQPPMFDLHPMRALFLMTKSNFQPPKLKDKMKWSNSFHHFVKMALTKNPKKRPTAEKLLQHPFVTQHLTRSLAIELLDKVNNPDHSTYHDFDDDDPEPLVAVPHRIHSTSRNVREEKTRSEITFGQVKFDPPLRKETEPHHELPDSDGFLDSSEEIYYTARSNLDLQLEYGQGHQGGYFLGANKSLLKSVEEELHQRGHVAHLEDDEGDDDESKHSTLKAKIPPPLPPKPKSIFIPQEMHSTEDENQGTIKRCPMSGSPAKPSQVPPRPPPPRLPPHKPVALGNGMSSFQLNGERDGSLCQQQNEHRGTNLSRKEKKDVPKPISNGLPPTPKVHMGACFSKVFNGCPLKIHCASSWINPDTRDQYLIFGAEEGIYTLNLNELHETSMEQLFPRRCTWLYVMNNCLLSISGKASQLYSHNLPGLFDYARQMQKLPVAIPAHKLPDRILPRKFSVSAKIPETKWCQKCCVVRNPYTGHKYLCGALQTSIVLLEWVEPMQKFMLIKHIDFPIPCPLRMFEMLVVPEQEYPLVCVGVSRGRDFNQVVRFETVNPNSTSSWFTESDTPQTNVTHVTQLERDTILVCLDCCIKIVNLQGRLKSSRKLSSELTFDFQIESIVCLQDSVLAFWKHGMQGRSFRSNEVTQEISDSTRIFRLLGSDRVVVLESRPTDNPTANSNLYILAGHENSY

Broadly, the TGI is how far tumour growth fell short of that in controls. High values mean much slowing of growth, low ones little slowing of growth. As a reminder, the IC50 is the midpoint of a concentration-inhibition curve. The low end stands for greater potency, the high end for weaker potency. Turning to `CN(C)[C@@H]1CC2(CCOCC2)c2ccc(Nc3ccc(-c4cnc5cc(F)ccn45)c4c3C(=O)NC4)nc21` [Compound 2B, (R)-7-((7-(DIMETHYLAMINO)-2′,3′,5′,6,6′,7-HEXAHYDROSPIRO[CYCLOPENTADIENYL[B]PYRIDINE-54′-PYRAN]-2-YL)AMINO)-4-(7-FLUOROIMIDAZO[1,2-A]PYRIDIN-3-YL)ISOINDOLIN-1-ONE], the Maximum induction factor in series [1] (IFN-γ secretion, human PBMC) was 7.7; in series [4] (IL-2 secretion, Jurkat cells), 10.9. Besides, the “EC3x” value is 22 nM in series [1] (concentration for IFN-γ secretion of human PBMC to reach 3 times the baseline, 3 days) and 90.7 nM in series [4] (concentration for IL-2 secretion of Jurkat cells to reach 3 times the baseline, 20 h). In addition, the “IV Plasma Cl_obs” value in series [2] (IV 1 mg/kg) is listed as 6.16 mL/min/kg. Also, the “Bioavailability F %” value in series [2] (IV 1 mg/kg and PO 5 mg/kg) worked out at 50.2%; in series [3] it was 48.4%. For the same molecule, the figures for the “PO Plasma AUC” value in series [2] (PO 5 mg/kg) and in series [3] were 6302 ng·h/mL and 1082 ng·h/mL, respectively. For the same molecule, the “T1/2” value came out at 8.81 h in series [2] (column beside IV plasma Cl_obs (IV 1 mg/kg)) and 1.65 h in series [3]. For the same molecule, the TGI in series [5] (25 mg/kg PO QD) stood at 59%; in series [5] (75 mg/kg PO BID), 90%; in series [5] (75 mg/kg PO QD) it was 70%. Also, the half-inhibitory concentration (IC50) worked out at 1.02 nM in series [6] and 464 nM in series [7].
